Measurements as given in ChEMBL document CHEMBL1144574, “Synthesis and identification of novel oxa-steroids as progesterone receptor antagonists” (Bioorg Med Chem Lett, 2007).

Assays:
Homo sapiens = species on record: Homo sapiens; test: Selectivity for human progesterone receptor over human glucocorticoid receptor
Progesterone receptor = molecular target: T1, Progesterone receptor (Homo sapiens, UniProt P06401); test: Antagonist activity at progesterone receptor in human T47D cells assessed as inhibition of progesterone-induced alkaline phosphatase activity; assay type: functional, cell-based
T1 sequence (P06401 whole entry): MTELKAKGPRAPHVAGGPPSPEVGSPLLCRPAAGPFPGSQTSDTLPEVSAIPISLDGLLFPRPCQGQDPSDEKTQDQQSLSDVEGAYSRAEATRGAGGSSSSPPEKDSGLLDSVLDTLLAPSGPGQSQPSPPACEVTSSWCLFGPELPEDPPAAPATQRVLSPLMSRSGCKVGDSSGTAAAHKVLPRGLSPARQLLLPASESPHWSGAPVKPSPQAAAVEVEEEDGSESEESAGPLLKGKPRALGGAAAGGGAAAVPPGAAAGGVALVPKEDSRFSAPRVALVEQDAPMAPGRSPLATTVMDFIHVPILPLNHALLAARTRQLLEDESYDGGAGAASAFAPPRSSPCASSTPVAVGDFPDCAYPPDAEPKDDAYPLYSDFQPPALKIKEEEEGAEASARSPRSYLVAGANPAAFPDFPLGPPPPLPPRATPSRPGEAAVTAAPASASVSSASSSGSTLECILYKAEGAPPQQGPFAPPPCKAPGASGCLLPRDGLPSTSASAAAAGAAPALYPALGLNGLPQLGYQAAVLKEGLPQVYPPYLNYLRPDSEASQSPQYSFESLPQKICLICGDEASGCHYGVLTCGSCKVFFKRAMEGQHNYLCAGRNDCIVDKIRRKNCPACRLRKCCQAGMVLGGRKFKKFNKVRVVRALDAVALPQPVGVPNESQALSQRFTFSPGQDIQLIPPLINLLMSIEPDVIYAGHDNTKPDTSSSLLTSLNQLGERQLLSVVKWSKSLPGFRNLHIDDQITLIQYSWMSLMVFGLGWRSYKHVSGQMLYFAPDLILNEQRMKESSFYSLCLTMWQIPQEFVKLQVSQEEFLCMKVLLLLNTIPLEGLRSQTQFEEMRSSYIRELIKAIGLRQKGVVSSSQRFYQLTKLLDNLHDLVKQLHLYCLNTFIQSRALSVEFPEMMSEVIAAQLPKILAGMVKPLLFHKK

Glucocorticoid receptor = molecular target: T2, Glucocorticoid receptor (Homo sapiens, UniProt P04150); test: Antagonist activity at glucocorticoid receptor in human A549 cells assessed as inhibition of corticoid-induced GRE-linked luciferase reporter gene activity; assay type: functional, cell-based
T2 sequence (P04150 whole entry): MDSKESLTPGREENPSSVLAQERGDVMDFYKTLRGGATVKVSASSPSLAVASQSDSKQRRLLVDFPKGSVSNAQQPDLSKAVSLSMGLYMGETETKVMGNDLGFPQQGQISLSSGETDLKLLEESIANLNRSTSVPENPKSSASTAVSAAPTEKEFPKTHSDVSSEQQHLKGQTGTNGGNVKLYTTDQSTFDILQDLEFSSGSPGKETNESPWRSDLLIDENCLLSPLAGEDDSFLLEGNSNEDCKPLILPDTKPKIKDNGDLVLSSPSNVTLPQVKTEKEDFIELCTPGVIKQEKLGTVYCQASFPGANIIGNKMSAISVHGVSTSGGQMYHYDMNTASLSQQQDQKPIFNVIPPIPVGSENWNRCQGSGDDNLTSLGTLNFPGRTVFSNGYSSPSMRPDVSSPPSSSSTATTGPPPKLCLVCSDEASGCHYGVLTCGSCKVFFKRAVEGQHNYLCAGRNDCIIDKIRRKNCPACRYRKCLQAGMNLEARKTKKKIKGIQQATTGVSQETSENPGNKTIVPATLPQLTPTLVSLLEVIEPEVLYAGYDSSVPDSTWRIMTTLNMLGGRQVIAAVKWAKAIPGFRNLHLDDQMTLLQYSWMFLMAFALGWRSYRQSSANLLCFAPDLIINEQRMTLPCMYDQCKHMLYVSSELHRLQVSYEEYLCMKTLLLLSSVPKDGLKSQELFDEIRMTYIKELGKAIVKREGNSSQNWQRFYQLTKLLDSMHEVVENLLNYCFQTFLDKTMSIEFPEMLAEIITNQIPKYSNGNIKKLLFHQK

Ratio IC50 (Homo sapiens) | IC50 (Progesterone receptor) | IC50 (Glucocorticoid receptor) | SMILES
– | > 1000 nM | > 3000 nM | CN(C)CC#C[C@]1(O)CC[C@H]2[C@@H]3OCC4=CC(=O)CCC4=C3[C@@H](c3ccc(N(C)C)cc3)C[C@@]21C
217 | 1.4 nM | 304 nM | CN(C)c1ccc([C@H]2C[C@@]3(C)[C@@H](CC[C@@]3(O)C#Cc3ccccc3)[C@@H]3OCC4=CC(=O)CCC4=C32)cc1
1 | 185 nM | 167 nM | CN(C)c1ccc([C@H]2C[C@@]3(C)[C@@H](CC[C@@]3(O)C#CC(C)(C)C)[C@@H]3OCC4=CC(=O)CCC4=C32)cc1
– | > 1000 nM | 558 nM | CN(C)c1ccc([C@H]2C[C@@]3(C)[C@@H](CC[C@@]3(O)C#CC(C)(C)O)[C@@H]3OCC4=CC(=O)CCC4=C32)cc1
11 | 19 nM | 204 nM | C#C[C@]1(O)CC[C@H]2[C@@H]3OCC4=CC(=O)CCC4=C3[C@@H](c3ccc(N(C)C)cc3)C[C@@]21C
12 | 7.5 nM | 86.5 nM | CC#C[C@]1(O)CC[C@H]2[C@@H]3OCC4=CC(=O)CCC4=C3[C@@H](c3ccc(N(C)C)cc3)C[C@@]21C

SMILES | Ratio IC50 (Homo sapiens) | IC50 (Progesterone receptor) | IC50 (Glucocorticoid receptor)
CN(C)c1ccc([C@H]2C[C@@]3(C)[C@@H](CC[C@@]3(O)C#CC(F)(F)F)[C@@H]3OCC4=CC(=O)CCC4=C32)cc1 | 6 | 9.3 nM | 55.5 nM
CN(C)c1ccc([C@H]2C[C@@]3(C)[C@@H](CC[C@@]3(O)C#CC3CC3)[C@@H]3OCC4=CC(=O)CCC4=C32)cc1 | 4 | 9.6 nM | 33.4 nM
